Measured values taken from PubChem BioAssay AID280 (DTP/NCI, 2004).
Where “and” joins values, the source holds several entries; their conditions need not be identical. Equal values may be shown once. Toxic doses and inconclusive results are not listed. The calls were made as follows: active = survival T/C of 150% or more; inactive = T/C below 125% in these data.

System: nude mice, LOX melanoma ip, survival T/C
Assay: NCI In Vivo Anticancer Drug Screen. Data for tumor model Human Amelanotic Melanoma (LOX) (intraperitoneal) in NU/NU BALB/C (nude) mice
Details: endpoint: median survival time, higher = longer survival
Procedure: The antitumor activity of compounds was measured in mice bearing transplantable tumors. Survival or tumor size were measured and the results are expressed as the measurement made in the treated group (T) divided by the measurement made in the vehicle treated control group (C). The tumor model used in this assay is Human Amelanotic Melanoma (LOX) (intraperitoneal) in NU/NU BALB/C (nude) mice

[1] = dose: 50.0 mg/kg/injection, schedule: Q04DX003 (ip), vehicle: saline with Tween-80
[2] = dose: 100.0 mg/kg/injection, schedule: Q04DX003 (ip), vehicle: saline with Tween-80
[3] = dose: 400.0 mg/kg/injection, schedule: Q04DX003 (ip), vehicle: saline with Tween-80
[4] = dose: 37.5 mg/kg/injection, schedule: Q04DX003 (ip), vehicle: saline with Tween-80
[5] = dose: 75.0 mg/kg/injection, schedule: Q04DX003 (ip), vehicle: saline with Tween-80
[6] = dose: 150.0 mg/kg/injection, schedule: Q04DX003 (ip), vehicle: saline with Tween-80
[7] = dose: 300.0 mg/kg/injection, schedule: Q04DX003 (ip), vehicle: saline with Tween-80

Measured: T/C

CC(=O)O[C@H]1C(=O)[C@@]2(C)C(C(OC(=O)c3ccccc3)[C@]3(O)C[C@H](OC(=O)C(OC(=O)CCCC(=O)NCCCN(C)C)C(NC(=O)c4ccccc4)c4ccccc4)C(C)=C1C3(C)C)C1(OC(C)=O)COC1C[C@@H]2O (stereo not given in full)
active: dose: 2.5 mg/kg/injection, schedule: Q01DX009 (ip), vehicle: water 155 % of control | dose: 5.0 mg/kg/injection, schedule: Q01DX009 (ip), vehicle: water 156 % of control | dose: 10.0 mg/kg/injection, schedule: Q01DX009 (ip), vehicle: water 157 % of control and 225 % of control | dose: 20.0 mg/kg/injection, schedule: Q01DX009 (ip), vehicle: water 205 % of control and 310 % of control

COc1ccc2oc3c(ccc[n+]3C)c(=O)c2c1
inactive: [1] 108 % of control | [2] 107 % of control | dose: 200.0 mg/kg/injection, schedule: Q04DX003 (ip), vehicle: saline with Tween-80 102 % of control | [3] 101 % of control

CCOc1ccc(C(C)c2cc3c(cc2OC)OCO3)cc1 (stereo not given)
active: dose: 150.0 mg/kg/injection, schedule: Q04DX003 (ip), vehicle: distilled water + Tween-80 177 % of control | dose: 300.0 mg/kg/injection, schedule: Q04DX003 (ip), vehicle: distilled water + Tween-80 161 % of control and 163 % of control | dose: 600.0 mg/kg/injection, schedule: Q04DX003 (ip), vehicle: distilled water + Tween-80 226 % of control and 252 % of control

ClC1(Cl)Cc2ccccc21
inactive: [1] 109 % of control | [2] 120 % of control | [3] 120 % of control

NCCCSc1ccccc1
inactive: dose: 9.38 mg/kg/injection, schedule: Q01DX009 (ip), vehicle: saline 94 % of control | dose: 18.75 mg/kg/injection, schedule: Q01DX009 (ip), vehicle: saline 99 % of control | dose: 37.5 mg/kg/injection, schedule: Q01DX009 (ip), vehicle: saline 99 % of control | dose: 75.0 mg/kg/injection, schedule: Q01DX009 (ip), vehicle: saline 94 % of control | dose: 150.0 mg/kg/injection, schedule: Q01DX009 (ip), vehicle: saline 89 % of control

CCOC(=O)C1=C(C)O/C(=C/c2cccc(Cl)c2)C1=O
active: [4] 200 % of control | [5] 194 % of control | [6] 152 % of control | [7] 184 % of control

CCS/C(SC)=C(/c1ccccc1)[P+](c1ccccc1)(c1ccccc1)c1ccccc1
inactive: dose: 0.81 mg/kg/injection, schedule: Q04DX003 (ip), vehicle: Klucel (hydroxypropylcellulose) (HPC) 106 % of control | dose: 1.35 mg/kg/injection, schedule: Q04DX003 (ip), vehicle: Klucel (hydroxypropylcellulose) (HPC) 106 % of control | dose: 2.25 mg/kg/injection, schedule: Q04DX003 (ip), vehicle: Klucel (hydroxypropylcellulose) (HPC) 118 % of control | dose: 3.12 mg/kg/injection, schedule: Q04DX003 (ip), vehicle: Klucel (hydroxypropylcellulose) (HPC) 95 % of control | dose: 3.76 mg/kg/injection, schedule: Q04DX003 (ip), vehicle: Klucel (hydroxypropylcellulose) (HPC) 100 % of control | dose: 6.25 mg/kg/injection, schedule: Q04DX003 (ip), vehicle: Klucel (hydroxypropylcellulose) (HPC) 94 % of control

O=NNc1cnccn1
active: dose: 16.9 mg/kg/injection, schedule: Q01DX009 (ip), vehicle: other 153 % of control | dose: 25.3 mg/kg/injection, schedule: Q01DX009 (ip), vehicle: other 175 % of control | dose: 25.3 mg/kg/injection, schedule: Q03HX008 (ip), vehicle: other 159 % of control | dose: 29.7 mg/kg/injection, schedule: Q04DX003 (ip), vehicle: water 201 % of control | dose: 38.0 mg/kg/injection, schedule: Q01DX005 (iv), vehicle: other 153 % of control | dose: 38.0 mg/kg/injection, schedule: Q01DX009 (ip), vehicle: other 189 % of control | dose: 44.5 mg/kg/injection, schedule: Q04DX003 (ip), vehicle: water 180 % of control and 189 % of control | dose: 50.0 mg/kg/injection, schedule: Q04DX003 (ip), vehicle: water 156 % of control | dose: 57.0 mg/kg/injection, schedule: Q01DX005 (iv), vehicle: other 191 % of control | dose: 57.0 mg/kg/injection, schedule: Q01DX009 (ip), vehicle: other 220 % of control | dose: 57.0 mg/kg/injection, schedule: Q04DX003 (ip), vehicle: other 170 % of control | dose: 57.0 mg/kg/injection, schedule: Q04DX003 (iv), vehicle: other 154 % of control | dose: 66.7 mg/kg/injection, schedule: Q04DX003 (ip), vehicle: water 200 % of control and 221 % of control | dose: 85.4 mg/kg/injection, schedule: Q04DX003 (ip), vehicle: other 185 % of control | dose: 85.4 mg/kg/injection, schedule: Q04DX003 (iv), vehicle: other 159 % of control | dose: 85.4 mg/kg/injection, schedule: Q08DX002 (ip), vehicle: other 150 % of control | dose: 100.0 mg/kg/injection, schedule: Q04DX003 (ip), vehicle: water 232 % of control and 250 % of control and 301 % of control | dose: 128.0 mg/kg/injection, schedule: Q01DX001 (ip), vehicle: other 170 % of control | dose: 128.0 mg/kg/injection, schedule: Q04DX003 (ip), vehicle: other 170 % of control | dose: 128.0 mg/kg/injection, schedule: Q08DX002 (ip), vehicle: other 180 % of control | dose: 150.0 mg/kg/injection, schedule: Q04DX003 (ip), vehicle: water 248 % of control and 296 % of control | dose: 192.0 mg/kg/injection, schedule: Q01DX001 (ip), vehicle: other 180 % of control | dose: 192.0 mg/kg/injection, schedule: Q08DX002 (ip), vehicle: other 300 % of control
inactive: dose: 11.3 mg/kg/injection, schedule: Q01DX009 (ip), vehicle: other 110 % of control | dose: 11.3 mg/kg/injection, schedule: Q03HX008 (ip), vehicle: other 117 % of control | dose: 12.5 mg/kg/injection, schedule: Q04DX003 (ip), vehicle: water 110 % of control | dose: 16.9 mg/kg/injection, schedule: Q01DX005 (iv), vehicle: other 97 % of control | dose: 38.0 mg/kg/injection, schedule: Q04DX003 (iv), vehicle: other 123 % of control | dose: 57.0 mg/kg/injection, schedule: Q01DX001 (ip), vehicle: other 116 % of control | dose: 57.0 mg/kg/injection, schedule: Q01DX001 (iv), vehicle: other 115 % of control | dose: 85.4 mg/kg/injection, schedule: Q01DX001 (iv), vehicle: other 120 % of control | dose: 128.0 mg/kg/injection, schedule: Q04DX003 (iv), vehicle: other 91 % of control | dose: 200.0 mg/kg/injection, schedule: Q04DX003 (ip), vehicle: water 121 % of control

COc1ccc(S(=O)(=O)N=N/C=C2\C=CC=CN2O)cc1OC
inactive: dose: 9.38 mg/kg/injection, schedule: Q04DX003 (ip), vehicle: saline with Tween-80 116 % of control | dose: 18.75 mg/kg/injection, schedule: Q04DX003 (ip), vehicle: saline with Tween-80 101 % of control | [4] 94 % of control | dose: 54.0 mg/kg/injection, schedule: Q04DX003 (ip), vehicle: saline with Tween-80 124 % of control | [5] 105 % of control
active: [6] 173 % of control | dose: 250.0 mg/kg/injection, schedule: Q04DX003 (ip), vehicle: saline with Tween-80 165 % of control | dose: 416.67 mg/kg/injection, schedule: Q04DX003 (ip), vehicle: saline with Tween-80 156 % of control

Cc1ccc2nc(-c3ccc4nc(-c5ccc(N=Nc6ccc(-c7nc8ccc(-c9nc%10ccc(C)c(S(=O)(=O)O)c%10s9)cc8s7)cc6)cc5)sc4c3)sc2c1S(=O)(=O)O
inactive: dose: 75.0 mg/kg/injection, schedule: Q04DX003 (ip), vehicle: suspension in saline 92 % of control | dose: 150.0 mg/kg/injection, schedule: Q04DX003 (ip), vehicle: suspension in saline 96 % of control

CC#CCOCC(O)CCl (stereo not given)
inactive: dose: 37.5 mg/kg/injection, schedule: Q04DX003 (ip), vehicle: saline 97 % of control | dose: 75.0 mg/kg/injection, schedule: Q04DX003 (ip), vehicle: saline 99 % of control | dose: 150.0 mg/kg/injection, schedule: Q04DX003 (ip), vehicle: saline 102 % of control | dose: 300.0 mg/kg/injection, schedule: Q04DX003 (ip), vehicle: saline 106 % of control | dose: 600.0 mg/kg/injection, schedule: Q04DX003 (ip), vehicle: saline 110 % of control

NC(=O)c1cc(Cl)nc2nc(Cl)nc(N)c12
inactive: [6] 92 % of control | [7] 111 % of control | dose: 600.0 mg/kg/injection, schedule: Q04DX003 (ip), vehicle: saline with Tween-80 94 % of control
